These are literature values, as cited in patent US20260001860A1, “METHODS AND COMPOSITIONS OF INHIBITING DCN1-UBC12 INTERACTION” (University of Kentucky Research Foundation, priority 2022, published 2026).

For the data set the following is noted: patient population taking either proteasome inhibitor.

Turning to `CC(C)C[C@H](NC(=O)[C@H](Cc1ccccc1)NC(=O)c1cnccn1)B(O)O` [bortezomib], the “patient population exhibiting grade 3 hematologic adverse events (thrombocytopenia and neutropenia)” value was 50%; the “patients suffering grade 4 adverse events (potentially life-threatening)” value is given as about 15%.
Turning to `CC(C)C[C@H](NC(=O)[C@H](CCc1ccccc1)NC(=O)CN1CCOCC1)C(=O)N[C@@H](Cc1ccccc1)C(=O)N[C@@H](CC(C)C)C(=O)[C@@]1(C)CO1` [carfilzomib], the “patient population exhibiting grade 3 hematologic adverse events (thrombocytopenia and neutropenia)” value is 50%; the “patients suffering grade 4 adverse events (potentially life-threatening)” value is about 15%.
